Key:
[1] = target: T1, Serotonin (5-Hydroxytryptamine) 5-HT7 (Homo sapiens, UniProt P34969); assay: Serotonin 5-HT7 radioligand binding ([3H]LSD); set-up: Inhibition of ligand binding, Ser. 5-HT7: concentration or dose not given beside the values; details: percent inhibition of specific binding
T1 construct: expressed in transfected cells; host or cells: CHO cells
Method: Lysergic acid diethylamide (LSD) for 2 hours at 25° C. […] Receptor proteins were filtered and washed, the filters were then counted to determine [^3H]LSD specifically bound. […] Biochemical assay results are presented as the percent inhibition of specific binding in Table 6.

rat brain mitochondria = assay: Mitochondrial membrane potential (safranine test); type: biochemical, Wistar rats; details: compounds did react with safranine in buffer without mitochondria
How it was run: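 Rat brain mitochondria incubated as for the swelling assay, with 10 mkM safranine in the medium and succinate added before test compounds. Absorbance read at 554 and 524 nm; A554-524 reflects membrane potential, A554 reflects swelling.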

AMPA receptors = assay: AMPA-receptor activity: kainic acid-induced currents in Purkinje cells (patch-clamp); type: cell-based, rat; details: mean±SEM, control=100%
How it was run: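 Whole-cell patch-clamp on Purkinje cells freshly isolated enzymatically from cerebellum of 12-15-day-old rats; currents evoked by kainic acid superfusion in HEPES saline pH 7.36, KCl/EGTA pipette solution pH 7.2. Each concentration repeated 3-4 times per neuron in 3-5 neurons; values are mean±SEM as % of control current.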

C57BL/6 mice [2] = assay: Recognition of the new object (non-spatial recognition memory); type: in vivo
Excerpt: The object recognition test is based on the fact that mice and rats spontaneously explore new object or location of a known object a lot longer than the know object or a known location of an object. This test was first used in rats (Ennaceur A., Delacour J., 1988). It was further shown by others that this type of memory testing is suitable for mice (Dodart J. et al. 1997, Messier C. 1997, Pittenger C. et al., 2002, Ryabinin A. et al., 2002, Sargolini F. et al., 2003). The method of recognition of an object is divided in two stages. The first one involves the recognition of a new location of a known object, which is used to assess spatial memory. The second one includes a test for recognition of a new in order to evaluate the non-spatial memory (Gaffan D., 1992, Kolb B. et al., 1994, Steckler T., 1998). Currently, both are widely used to determine the effectiveness of newly synthesized drugs on memory.
Dimebon and compounds of the invention were dissolved in distilled water and administered orally at 0.05 mL per 10 g of animal mass 1 hour before the training exercise. All animals in the control group were treated with the equivalent dose of vehicle. The testing was performed 48 hours after the training exercise because animals forget the location of the object during the 48-hour resting time.
The following experiment was also performed on 3-4 months old males (C57BL/6 line) with 10 animals in each group. All animals were kept in the animal facility (5 animals per cage) on the 12×12 hours light cycle (8 am-8 pm) with free access to food and water. However, in this case a round bottom testing chamber 52 cm in diameter (20.5 inches) and 34 cm (13.4 inches) high was used. Similarly, brown glass vials were used as test objects which are 2.7 cm in diameter (1.1 inch) and 5.5 cm high (2.2 inch). The testing compounds were administered orally at 0.05 mL per 10 g of animal mass 1 hour before the training exercise. All animals in the control group were treated with the equivalent dose of vehicle. The testing was performed 48 hours after the training exercise because animals forget the location of the object during the 48-hour resting time.
The experimental procedure was identical to the previously described test (Recognition of a new location of a known object). The major difference is in the testing procedure which involved one known object (brown glass vial) and one unknown object. The second glass vial was substituted with metallic cylinder 3 cm (1.2 inches) in diameter and 4.5 cm (1.8 inches) high.
Due to fair differences in the amount of time that each animal surveyed the object, the percentage of the survey time for each animal was determined using this formula: tNL/(tFL+tNL)×100 (where t is time, NL—new location(object), and FL—familiar location(object)). As 100% was taken the total amount of time that animals explored both objects. Subsequently, the statistical significance was analyzed using a Student's t-test criteria.

mice = assay: recognition test of new location of a known object (spatial memory); type: in vivo
C57BL/6 mice [3] = details: 0.01-0.1 mg/kg; previously shown; cited from earlier work
[4] = 0.05 mg/kg, 1 hour prior to training, test 48 hours after training

T1 sequence (P34969 whole entry): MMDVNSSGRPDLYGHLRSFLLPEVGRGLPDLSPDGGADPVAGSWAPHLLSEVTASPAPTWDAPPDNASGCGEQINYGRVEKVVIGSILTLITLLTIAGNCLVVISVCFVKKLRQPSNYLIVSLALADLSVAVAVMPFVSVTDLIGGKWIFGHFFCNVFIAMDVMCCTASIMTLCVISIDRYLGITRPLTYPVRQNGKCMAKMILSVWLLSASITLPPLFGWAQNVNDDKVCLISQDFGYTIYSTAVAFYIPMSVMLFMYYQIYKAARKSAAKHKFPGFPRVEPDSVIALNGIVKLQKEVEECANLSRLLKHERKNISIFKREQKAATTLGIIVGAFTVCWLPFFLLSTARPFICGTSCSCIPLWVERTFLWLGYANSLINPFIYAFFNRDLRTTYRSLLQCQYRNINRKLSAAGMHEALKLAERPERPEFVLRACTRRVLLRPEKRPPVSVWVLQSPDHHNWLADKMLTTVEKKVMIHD

For `CN1CCc2c(c3cc(Cl)ccc3n2CCc2ccc(C(F)(F)F)nc2)C1` [Compound 250], which “Inhibition of ligand binding, Ser. 5-HT7” value [1] is on record?
Its value is 93%.

What does the source list for `CN1CCc2c(c3cc(Cl)ccc3n2CCc2nc(-c3ccccc3)cs2)C1` [Compound C1-8]?
depolarizing activity in safranine test (rat brain mitochondria): depolarizing activity; kainic acid-induced currents in Purkinje cells, % of Control values (AMPA receptors; compound 3 × 10^−5 M): 90 ± 7%; kainic acid-induced currents in Purkinje cells, % of Control values (AMPA receptors; compound 10^−5 M): 105 ± 8%; kainic acid-induced currents in Purkinje cells, % of Control values (AMPA receptors; compound 10^−6 M): 123 ± 8%; kainic acid-induced currents in Purkinje cells, % of Control values (AMPA receptors; compound 10^−7 M): 102 ± 3%; kainic acid-induced currents in Purkinje cells, % of Control values (AMPA receptors; compound 10^−8 M): 100 ± 4%

With `Cc1ccc2c(c1)c1c(n2CCc2ccc(C)nc2)CCN(C)C1` [Dimebon, dimebon, reference compound] as the compound, how does the “effect on memory in the new object recognition test” value (C57BL/6 mice [2]; 0.005 mg/kg) read?
Its value is “memory activating effect”.

What about the “time spent to recognize the known object, % of the total time” value (C57BL/6 mice [2]; [4]) of the same compound?
Its value is 34.4±4.4%.

And the “time spent to recognize the new object, % of the total time” value (C57BL/6 mice [2]; [4])?
Its value is 65.6±4.4%.

And the “effect on memory in the new object recognition test” value (C57BL/6 mice [2]; 0.5 mg/kg)?
The value was “not statistically significant”.

What about the “effect on memory in the new object recognition test” value (C57BL/6 mice [2]; 1-2 mg/kg) of the same compound?
Its value is “the stimulating effect on memory returned”.

What about the “Influence on memory in the test recognition new localization of known object” value (“Influence on memory” for short) (mice; Dose of Compound 0.05 mg/kg) of the same compound?
Its value is “+”.

What about the “Influence on memory” value (mice; Dose of Compound 0.1 mg/kg) of the same compound?
The value was “+”.

And the “Influence on memory” value (mice; Dose of Compound 0.5 mg/kg)?
Its value is “−”.

What about the “Influence on memory” value (mice; Dose of Compound 1.0 mg/kg) of the same compound?
Its value is “−”.

And the “effect on memory in the recognition test of a known object in a new location” value (C57BL/6 mice [3])?
Its value is “dose-dependent activating effect on memory”.
